Values quoted from earlier work, collected in patent US20240024348A1, “METHODS AND COMPOSITIONS FOR THE TREATMENT OF GLAUCOMA AND RELATED CONDITIONS” (Ophthalmic Therapeutic Innovation, priority 2022, published 2024).
Entries after “also recorded” stand apart in the source; their conditions may differ. Read-outs that look alike come from different tables or passages of the source.

Columns and labels:
aged mice = conditions: 6% treatment, vs placebo treated eyes; cited from earlier work
[1] = tested on: POAG/OH patients with Latanoprost poor responders; conditions: cited from earlier work
[2] = tested on: patients or human subjects; conditions: cited from earlier work; for conjunctiva hyperemia: eye drops, clinical trials
NAION mice model = conditions: cited from earlier work
patients = conditions: 3% QD and 6% QD with 0.005% QD Lantanoprost; cited from earlier work
patients with POAG/OH = conditions: cited from earlier work; for IOP reduction: Ph2, 1.5% BID
light damaged rat models = conditions: cited from earlier work
[3] = tested on: ischemia-reperfusion rodent model; conditions: cited from earlier work
human TM cell [4] = conditions: human TM cell culture; cited from earlier work
[5] = tested on: Dutch-belted pigmented and normotensive rabbit eyes; conditions: single dose 0.6% eye drop, cited from earlier work
young and aged C57 mice = conditions: 7 days, cited from earlier work
rat = conditions: cited from earlier work
patient with NTG = conditions: cited from earlier work
human TM cell [6] = conditions: high concentration (10 ug/mL); cited from earlier work
[7] = tested on: patients with refractory glaucoma; conditions: two individual patients with refractory glaucoma; cited from earlier work
[8] = human donor eyes; cited from earlier work

Trabodenoson
TM morphology / ECM (aged mice): TM mesh pores opening up and ECM remodeling with enlarged ECM space
IOP time course ([1]; 1.5% BID 8 weeks then 3.0% QD 4 weeks, add-on to Latanoprost, 12 weeks): robust and continuous IOP improvement over the course of 12 weeks; also recorded: robust and incremental IOP improvement over a course of 12-week treatment time
effectiveness POAG vs OH ([1]; Lantanoprost poor responders): more effective in patients with POAG than with OH
systemic clinical safety and ocular tolerability ([2]; 819 subjects, 2 weeks to 3 months, 0.15% BID to 6% QD, up to 18% single dose): excellent systemic clinical safety and ocular tolerability
conjunctiva hyperemia [2]: 2.56%
axon loss and myelination damage of optic nerve (EM) (NAION mice model; 6% eye drops BID, vs placebo control): significant reduction of the axon loss and myelination damage
RGC neural protection (NAION mice model; NAION mice model): potent neural protectant for RGC cell rescue
IOP efficacy of combination vs Lantanoprost alone (patients): less effective than 0.005% QD Lantanoprost alone
IOP dose response curve (IOP reduction from baseline IOP) (patients with POAG/OH; 14-Day Phase 2 dose escalation, 0.15%, 0.3%, 0.6%, 1.5% BID): 0.6% BID peaked at the top
IOP reduction (patients with POAG/OH; day 14, baseline IOP>21 mmHg): 6.5 mmHg
IOP reduction (patients with POAG/OH; day 14, baseline IOP>25 mmHg): > 7 mmHg
IOP improvement, day 28 vs Day 14 (patients with POAG/OH; Phase 2, 1.5% BID eye drops, baseline IOP>21 mmHg, in 2 weeks): 0.9 mmHg
IOP reduction POAG vs OH (patients with POAG/OH; Phase 2, 1.5% BID, early-stage population): higher IOP reduction in patients with POAG than that with OH
IOP reduction from the diurnal IOP at day -1 (patients with POAG/OH; Phase 2 dose escalation, Day 14): 1.5% BID is more effective than 0.15% BID, 0.3% BID, 0.6% BID at Day 14
Phase 3 IOP endpoint (patients with POAG/OH; Phase 3 clinical trials, 3 months): failed to meet the IOP endpoint at 3 months
IOP time course (patients with POAG/OH; Phase 3 monotherapy, 6% QD, 3 months, vs placebo): incremental increase of the IOP reduction; also recorded: continuous IOP improvement over a course of 3 months with clinical significance compared to placebo
maximal IOP reduction (patients with POAG/OH; eye drops 1.5% BID, day 28 (4 weeks), early stage POAG/OH): 6-7 mmHg
time before reaching a steady state (patients with POAG/OH; eye drops, early stage POAG/OH with very mild damage): more than 3 months
photoreceptor cell loss (light damaged rat models): rescuing photoreceptor cell loss
protection of RGC and outer layer photoreceptors [3]: demonstrated neural protection for both RGC inner layer of the neurons and the outer layer of neurons (photoreceptors); also recorded: more potent in rescuing and protecting the RGC and outer layer photoreceptors from apoptosis
MMP-14 expression (human TM cell [4]): upregulating MMP-14 expression
collagen IV and fibronectin (human TM cell [4]): downregulation of collagen IV and fibronectin
IOP reduction from the baseline ([5]; at 2 hours): 25%-27%
time of IOP return to the baseline [5]: 6 h
IOP reduction over time (young and aged C57 mice; 3% QD, young C57 mice): sustained over 7 days
IOP lowering effect over time (young and aged C57 mice; 6% QD, aged C57 mice): slowly diminished at day 7
heart rate (rat): reduces the heart rate in rat

O=C(CCC/C=C\C[C@@H]1[C@@H](CC[C@@H](O)CCc2ccccc2)[C@H](O)C[C@@H]1O)OCCCCO[N+](=O)[O-] [Vyzulta, Latanoprost Bunod]
IOP improvement (patient with NTG; during the first 12-week of 12-month study, Japanese population): less than 1.0 mmHg
IOP improvement (patient with NTG; within the first 12-week of 12-month study): ~0.6 mmmHg

CCNC(=O)CCC/C=C\C[C@@H]1[C@@H](/C=C/[C@@H](O)CCc2ccccc2)[C@H](O)C[C@@H]1O [Bimatoprost]
MMP-9 expression (human TM cell [6]): upregulates MMP-9 expression

CC(C)OC(=O)CCC/C=C\C[C@@H]1[C@@H](CC[C@@H](O)CCc2ccccc2)[C@H](O)C[C@@H]1O [Latanoprost]
MMP-9 expression (human TM cell [6]): upregulates MMP-9 expression

Brc1c(NC2=NCCN2)ccc2nccnc12 [Brimonidine, reference compound]
protection of RGC and outer layer photoreceptors [3]: lacks effects toward the outer layer photoreceptor cells
protection of RGC and outer layer photoreceptors ([3]; listed as brimonidine): did not protect photoreceptor loss

Cc1ccc(C(=O)OCc2ccc([C@@H](CN)C(=O)Nc3ccc4cnccc4c3)cc2)c(C)c1 [Rhopressa, reference compound]
conjunctiva hyperemia [2]: 50%

CCCCCCCC(=O)CC[C@@H]1[C@@H](C/C=C\CCCC(=O)OC(C)C)[C@@H](O)C[C@H]1O [Rescula]
IOP profile [7]: slow mode and accumulative improvement over time

B1: MMP-2: matrix metalloproteinase (protein, UniProt P08253 110-660, looked up)
72 kDa type IV collagenase: YNFFPRKPKWDKNQITYRIIGYTPDLDPETVDDAFARAFQVWSDVTPLRFSRIHDGEADIMINFGRWEHGDGYPFDGKDGLLAHAFAPGTGVGGDSHFDDDELWTLGEGQVVRVKYGNADGEYCKFPFLFNGKEYNSCTDTGRSDGFLWCSTTYNFEKDGKYGFCPHEALFTMGGNAEGQPCKFPFRFQGTSYDSCTTEGRTDGYRWCGTTEDYDRDKKYGFCPETAMSTVGGNSEGAPCVFPFTFLGNKYESCTSAGRSDGKMWCATTANYDDDRKWGFCPDQGYSLFLVAAHEFGHAMGLEHSQDPGALMAPIYTYTKNFRLSQDDIKGIQELYGASPDIDLGTGPTPTLGPVTPEICKQDIVFDGIAQIRGEIFFFKDRFIWRTVTPRDKPMGPLLVATFWPELPEKIDAVYEAPQEEKAVFFAGNEYWIYSASTLERGYPKPLTSLGLPPDVQRVDAAFNWSKNKKTYIFAGDKFWRYNEVKKKMDPGFPKLIADAWNAIPDNLDAVVDLQGGGHSYFFKGAYYLKLENQSLKSVKFGSIKSDWLGC
hydraulic conductance of Bruch's membrane [8]: increases hydraulic conductance
